The values that follow come from ChEMBL document CHEMBL5230114, “Current development of CFTR potentiators in the last decade” (Eur J Med Chem, 2020).

What is called pEC50 is −log10 of the EC50, conventionally taken in molar units.

For assay [1], the target named is Cystic fibrosis transmembrane conductance regulator (Homo sapiens, UniProt P13569, W1282X). As to the kind of experiment: Potentiation of CFTR W1282X mutant (unknown origin) expressed in rat FRT cells. The assay is classed as cell-based.
The test system of assay [2] is Cystic fibrosis transmembrane conductance regulator (Homo sapiens), P13569 [F508del]. Briefly: Potentiation of CFTR F508del mutant (unknown origin) expressed in rat FRT cells assessed as increase in chloride current by measuring maximal effect at 30 uM in presence of forskolin relative to control. The assay is classed as cell-based. The settings on record: filed as activator.
Cystic fibrosis transmembrane conductance regulator (Homo sapiens), P13569 [F508del], sequence (P13569 as listed by the source): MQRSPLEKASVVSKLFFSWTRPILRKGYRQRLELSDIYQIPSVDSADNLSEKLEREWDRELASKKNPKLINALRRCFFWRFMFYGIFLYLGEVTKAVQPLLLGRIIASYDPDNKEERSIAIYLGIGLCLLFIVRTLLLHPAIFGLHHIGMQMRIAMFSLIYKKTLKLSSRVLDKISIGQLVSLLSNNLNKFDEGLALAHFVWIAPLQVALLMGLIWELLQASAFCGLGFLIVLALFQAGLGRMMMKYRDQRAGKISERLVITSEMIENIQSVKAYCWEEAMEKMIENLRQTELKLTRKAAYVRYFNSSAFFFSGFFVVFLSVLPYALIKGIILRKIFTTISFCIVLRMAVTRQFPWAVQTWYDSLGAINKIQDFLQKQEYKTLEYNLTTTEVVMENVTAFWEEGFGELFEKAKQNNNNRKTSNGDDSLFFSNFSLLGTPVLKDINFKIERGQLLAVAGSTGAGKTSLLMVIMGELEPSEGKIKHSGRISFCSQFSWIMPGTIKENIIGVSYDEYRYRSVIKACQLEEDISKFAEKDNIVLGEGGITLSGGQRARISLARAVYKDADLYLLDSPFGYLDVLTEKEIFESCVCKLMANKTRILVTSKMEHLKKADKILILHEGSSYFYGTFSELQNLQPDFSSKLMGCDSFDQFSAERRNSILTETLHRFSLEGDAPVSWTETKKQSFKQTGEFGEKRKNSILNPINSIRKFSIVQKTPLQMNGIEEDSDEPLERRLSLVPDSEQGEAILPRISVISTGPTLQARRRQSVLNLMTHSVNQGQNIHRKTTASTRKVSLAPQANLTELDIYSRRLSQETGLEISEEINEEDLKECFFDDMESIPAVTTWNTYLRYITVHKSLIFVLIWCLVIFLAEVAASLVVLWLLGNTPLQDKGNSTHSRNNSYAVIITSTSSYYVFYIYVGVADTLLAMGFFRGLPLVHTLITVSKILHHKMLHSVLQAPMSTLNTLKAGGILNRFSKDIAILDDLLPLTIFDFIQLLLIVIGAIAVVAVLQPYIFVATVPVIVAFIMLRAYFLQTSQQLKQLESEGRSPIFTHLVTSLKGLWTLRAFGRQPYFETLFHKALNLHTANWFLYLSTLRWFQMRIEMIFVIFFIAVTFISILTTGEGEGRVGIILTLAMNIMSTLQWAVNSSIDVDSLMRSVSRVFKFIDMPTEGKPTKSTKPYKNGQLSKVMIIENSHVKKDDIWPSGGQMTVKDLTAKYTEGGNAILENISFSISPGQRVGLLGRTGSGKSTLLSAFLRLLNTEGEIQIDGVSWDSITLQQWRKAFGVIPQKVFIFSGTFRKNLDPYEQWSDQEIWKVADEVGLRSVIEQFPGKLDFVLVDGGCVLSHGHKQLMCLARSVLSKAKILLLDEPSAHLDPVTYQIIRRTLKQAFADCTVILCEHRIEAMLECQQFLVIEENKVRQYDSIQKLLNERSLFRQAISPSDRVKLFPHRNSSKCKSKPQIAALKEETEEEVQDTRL

Assay [3] shares this test system. As to the kind of experiment: Potentiation of CD4-HRP tagged CFTR F508del mutant NBD1 (unknown origin) expressed in MDCK cells assessed as increase in chloride current by measuring fold increase in luminescence signal incubated for 24 hrs relative to control. It is filed as cell-based. The settings on record: filed as activator.
Assay [4] addresses Cystic fibrosis transmembrane conductance regulator (Homo sapiens, UniProt P13569, F508DEL). Briefly: Potentiation of CFTR F508del mutant activity (unknown origin).
The target of assay [5] is Cystic fibrosis transmembrane conductance regulator (Rattus norvegicus, UniProt P34158, F508DEL). As to the kind of experiment: Potentiation of CFTR F508del mutant in rat FRT cells assessed as increase in iodide influx in presence of forskolin. The assay is classed as cell-based.
Cystic fibrosis transmembrane conductance regulator (Rattus norvegicus, UniProt P34158, F508DEL), sequence (P34158 whole entry F508del, looked up): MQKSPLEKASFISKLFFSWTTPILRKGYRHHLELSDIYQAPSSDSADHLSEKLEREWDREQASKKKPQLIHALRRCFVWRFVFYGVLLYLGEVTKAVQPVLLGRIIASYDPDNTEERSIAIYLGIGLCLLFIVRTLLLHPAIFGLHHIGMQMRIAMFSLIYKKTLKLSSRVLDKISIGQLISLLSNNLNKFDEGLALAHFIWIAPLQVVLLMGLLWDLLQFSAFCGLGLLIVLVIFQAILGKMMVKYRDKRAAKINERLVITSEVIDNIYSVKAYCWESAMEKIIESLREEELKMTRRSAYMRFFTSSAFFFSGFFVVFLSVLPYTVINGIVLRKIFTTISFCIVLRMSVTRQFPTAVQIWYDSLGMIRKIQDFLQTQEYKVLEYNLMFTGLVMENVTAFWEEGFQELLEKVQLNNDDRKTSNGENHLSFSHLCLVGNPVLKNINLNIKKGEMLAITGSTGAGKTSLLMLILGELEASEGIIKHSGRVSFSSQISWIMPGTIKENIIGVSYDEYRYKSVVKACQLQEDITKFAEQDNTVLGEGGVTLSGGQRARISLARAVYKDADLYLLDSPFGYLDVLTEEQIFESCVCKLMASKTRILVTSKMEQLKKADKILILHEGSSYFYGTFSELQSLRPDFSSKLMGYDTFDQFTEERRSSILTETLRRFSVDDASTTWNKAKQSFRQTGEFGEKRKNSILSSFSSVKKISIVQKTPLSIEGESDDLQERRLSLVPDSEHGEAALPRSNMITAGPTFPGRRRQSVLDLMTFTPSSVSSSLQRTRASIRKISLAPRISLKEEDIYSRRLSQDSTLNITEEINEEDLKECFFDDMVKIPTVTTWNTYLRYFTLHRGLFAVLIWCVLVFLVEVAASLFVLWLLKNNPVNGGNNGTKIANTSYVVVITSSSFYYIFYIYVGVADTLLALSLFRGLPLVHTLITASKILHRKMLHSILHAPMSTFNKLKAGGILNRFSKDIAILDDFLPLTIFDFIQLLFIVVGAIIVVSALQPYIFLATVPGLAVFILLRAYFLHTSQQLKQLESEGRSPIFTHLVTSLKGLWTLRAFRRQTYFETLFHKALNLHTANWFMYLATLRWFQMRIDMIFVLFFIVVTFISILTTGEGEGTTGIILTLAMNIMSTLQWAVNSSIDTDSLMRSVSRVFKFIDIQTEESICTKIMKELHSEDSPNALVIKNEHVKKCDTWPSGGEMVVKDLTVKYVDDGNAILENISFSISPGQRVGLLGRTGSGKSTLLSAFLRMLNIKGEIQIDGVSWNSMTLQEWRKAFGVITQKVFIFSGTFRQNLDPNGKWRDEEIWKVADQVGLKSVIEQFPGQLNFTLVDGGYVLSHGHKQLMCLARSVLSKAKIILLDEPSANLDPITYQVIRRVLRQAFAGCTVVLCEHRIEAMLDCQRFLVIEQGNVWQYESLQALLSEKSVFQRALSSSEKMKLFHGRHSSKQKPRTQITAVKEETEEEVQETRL
Assay [6] concerns Cystic fibrosis transmembrane conductance regulator (Rattus norvegicus), P34158 [UNDEFINED MUTATION]. As to the kind of experiment: Potency index, ratio of genistein EC50 to test compound EC50 for potentiation of CFTR F508del mutant in rat FRT cells assessed as increase in iodide influx in presence of forskolin. It is filed as cell-based.
Cystic fibrosis transmembrane conductance regulator (Rattus norvegicus), P34158 [UNDEFINED MUTATION], sequence (P34158 whole entry, looked up, stated change not applied): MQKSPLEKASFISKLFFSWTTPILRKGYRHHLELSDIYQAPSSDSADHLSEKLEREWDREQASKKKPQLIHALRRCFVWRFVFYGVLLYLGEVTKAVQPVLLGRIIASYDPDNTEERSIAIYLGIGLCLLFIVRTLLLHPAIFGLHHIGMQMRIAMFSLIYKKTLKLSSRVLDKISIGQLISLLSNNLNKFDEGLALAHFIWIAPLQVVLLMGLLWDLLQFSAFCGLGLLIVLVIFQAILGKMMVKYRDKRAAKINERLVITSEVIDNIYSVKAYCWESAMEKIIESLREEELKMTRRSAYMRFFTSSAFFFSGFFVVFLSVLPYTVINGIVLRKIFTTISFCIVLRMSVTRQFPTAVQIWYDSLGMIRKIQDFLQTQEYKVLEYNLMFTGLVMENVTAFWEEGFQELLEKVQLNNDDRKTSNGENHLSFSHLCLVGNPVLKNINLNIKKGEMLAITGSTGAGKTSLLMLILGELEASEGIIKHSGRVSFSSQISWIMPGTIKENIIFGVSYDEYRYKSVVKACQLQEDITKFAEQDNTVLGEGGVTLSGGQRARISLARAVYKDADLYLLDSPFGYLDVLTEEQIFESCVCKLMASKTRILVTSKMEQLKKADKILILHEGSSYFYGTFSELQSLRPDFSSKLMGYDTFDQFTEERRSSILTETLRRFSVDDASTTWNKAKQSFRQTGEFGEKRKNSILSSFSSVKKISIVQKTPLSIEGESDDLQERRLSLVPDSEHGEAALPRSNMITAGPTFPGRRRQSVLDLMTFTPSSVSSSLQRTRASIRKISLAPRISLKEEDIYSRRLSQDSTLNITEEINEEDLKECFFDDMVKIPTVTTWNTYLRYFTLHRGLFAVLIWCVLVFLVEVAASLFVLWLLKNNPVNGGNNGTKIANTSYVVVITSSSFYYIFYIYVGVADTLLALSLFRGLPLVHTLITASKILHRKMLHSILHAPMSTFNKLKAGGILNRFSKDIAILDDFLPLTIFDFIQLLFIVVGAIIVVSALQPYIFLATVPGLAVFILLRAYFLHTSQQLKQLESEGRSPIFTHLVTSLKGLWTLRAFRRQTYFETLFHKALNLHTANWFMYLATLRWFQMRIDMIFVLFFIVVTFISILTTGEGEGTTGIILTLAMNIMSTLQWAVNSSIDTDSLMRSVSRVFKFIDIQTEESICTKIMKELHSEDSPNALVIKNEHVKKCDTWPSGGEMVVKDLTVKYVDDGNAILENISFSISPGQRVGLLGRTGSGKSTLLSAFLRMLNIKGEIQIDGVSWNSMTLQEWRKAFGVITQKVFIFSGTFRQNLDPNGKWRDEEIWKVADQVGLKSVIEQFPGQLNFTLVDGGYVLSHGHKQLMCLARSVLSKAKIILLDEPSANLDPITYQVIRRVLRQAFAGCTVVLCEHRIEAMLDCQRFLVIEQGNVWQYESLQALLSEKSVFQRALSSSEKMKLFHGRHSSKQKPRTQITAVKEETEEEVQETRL

Each structure is given as a SMILES string. pEC50: −log10 of the molar value.

Cystic fibrosis transmembrane conductance regulator (Homo sapiens, UniProt P13569, F508DEL), sequence (P13569 as listed by the source): as the sequence (P13569 as listed by the source) above

With `CCCCCn1cc(S(=O)(=O)Nc2ccc(CC)cc2)c2cccnc21`, the pEC50 in assay [1] is 6.00.
For `COc1ccc(CNC(=O)c2sc3ccc(Cl)cc3c2OC)c(OC)c1`, the Activity in assay [2] is 50%.
Regarding `COc1c(C(=O)NCc2ccc(F)cc2Cl)sc2ccccc12`, in assay [3], the fold change (FC) was found to be 2.
On the same count and under the same terms, in the case of `COc1c(C(=O)NCc2ccccc2Br)sc2ccccc12` it was 2.4.
For `CN(C(=O)Cc1c[nH]c2ccccc12)[C@H](C(=O)Nc1ccc(F)cc1)c1ccccc1`, in assay [4], the pEC50 is 7.05.
Consider `COc1cc(CNC(=O)c2sc3ccccc3c2OC)cc(OC)c1`, for which, in assay [3], the fold change (FC) was 1.7.
In the case of `CC(C)c1ccc(NC(=O)C(c2ccccc2)N(C)C(=O)Cc2c[nH]c3ccccc23)cc1` (stereo unspecified), the negative logarithm of the EC50 (pEC50) in assay [5] is 7.15. The Ratio EC50 in assay [6] came to 100.
As to `CCc1ccc(NS(=O)(=O)c2cn(Cc3ccccc3C#N)c3ncccc23)cc1`, the pEC50 in assay [1] was 6.15.
Still for that read-out and setting: then `CCc1ccc(NS(=O)(=O)c2cn(Cc3ccccn3)c3ncccc23)cc1`, with 6.22.
For `CN(C(=O)Cc1c[nH]c2ccccc12)[C@H](C(=O)Nc1ccc(-n2cc(CCCF)nn2)cc1)c1ccccc1`, the pEC50 in assay [4] is 5.96.
